According to US11083725B2 (priority 2014, dated 2021):

System: NHBE cells
Test: Biolog metabolic array: substrate use by NHBE cells with or without CA09 infection
Type: cell-based, human
Conditions: for Substrate use, 590 nm absorbance normalized to zero hour, 1 hr: Biolog PMM2, 1 hr; for Substrate use, 590 nm absorbance normalized to zero hour, 5 hr: Biolog PMM2, 5 hr; for Substrate use, 590 nm absorbance normalized to zero hour, 7 hr: Biolog PMM2, 7 hr; for Substrate use, 590 nm absorbance normalized to zero hour, 0 hr: Biolog PMM2, 0 hr
[1] = Control (uninfected) NHBE cells
[2] = Virus (CA09, MOI 1) infected NHBE cells
[3] = Virus (CA09-infected, MOI 1) NHBE cells

SMILES	590 nm absorbance normalized to zero hour (substrate use), 1 hr [1]	590 nm absorbance normalized to zero hour (substrate use), 2 hr [1]	590 nm absorbance normalized to zero hour (substrate use), 3 hr [1]	590 nm absorbance normalized to zero hour (substrate use), 4 hr [1]	590 nm absorbance normalized to zero hour (substrate use), 6 hr [1]	590 nm absorbance normalized to zero hour (substrate use), 8 hr [1]	590 nm absorbance normalized to zero hour (substrate use), 9 hr [1]	590 nm absorbance normalized to zero hour (substrate use), 10 hr [1]	590 nm absorbance normalized to zero hour (substrate use), 11 hr [1]	Substrate use, 590 nm absorbance normalized to zero hour, 1 hr [1]	Substrate use, 590 nm absorbance normalized to zero hour, 5 hr [1]	Substrate use, 590 nm absorbance normalized to zero hour, 7 hr [1]	Substrate use, 590 nm absorbance normalized to zero hour, 1 hr [2]	Substrate use, 590 nm absorbance normalized to zero hour, 5 hr [2]	Substrate use, 590 nm absorbance normalized to zero hour, 7 hr [2]	590 nm absorbance normalized to zero hour (substrate use), 1 hr [3]	590 nm absorbance normalized to zero hour (substrate use), 2 hr [3]	590 nm absorbance normalized to zero hour (substrate use), 3 hr [3]	590 nm absorbance normalized to zero hour (substrate use), 4 hr [3]	590 nm absorbance normalized to zero hour (substrate use), 6 hr [3]	further results
O=C[C@H](O)[C@@H](O)[C@@H](O)[C@H](O)CO [D-Galactose]	0.95	1.46	1.73	1.56	1.78	2.22	2.53	2.67	2.53	0.95	1.88	2.03	0.91	1.89	2.16	0.91	1.21	1.47	1.60	2.03	590 nm absorbance normalized to zero hour (substrate use), 8 hr [3]: 2.29; 590 nm absorbance normalized to zero hour (substrate use), 9 hr [3]: 2.54; 590 nm absorbance normalized to zero hour (substrate use), 10 hr [3]: 2.63; 590 nm absorbance normalized to zero hour (substrate use), 11 hr [3]: 2.86
N[C@@H](C(=O)O)[C@@H](O)[C@H](O)[C@H](O)CO [D-Glucosaminic Acid]	0.86	0.94	0.90	1.21	0.36	0.97	0.98	0.97	0.39	0.86	1.22	0.95	1.69	3.09	3.47	1.69	2.21	2.51	2.69	3.31	590 nm absorbance normalized to zero hour (substrate use), 0 hr [1]: 1.00; Substrate use, 590 nm absorbance normalized to zero hour, 0 hr [1]: 1.00; Substrate use, 590 nm absorbance normalized to zero hour, 0 hr [2]: 1.00; 590 nm absorbance normalized to zero hour (substrate use), 0 hr [3]: 1.00; 590 nm absorbance normalized to zero hour (substrate use), 8 hr [3]: 3.57; 590 nm absorbance normalized to zero hour (substrate use), 9 hr [3]: 3.89; 590 nm absorbance normalized to zero hour (substrate use), 10 hr [3]: 3.88; 590 nm absorbance normalized to zero hour (substrate use), 11 hr [3]: 3.32
O=P(O)(O)O[C@H]1O[C@H](CO)[C@@H](O)[C@H](O)[C@H]1O [D-Glucose-1-Phosphate]	1.01	1.31	1.24	1.16	0.33	1.03	1.09	1.06	0.93	1.01	1.12	1.10	1.74	3.94	4.56	1.74	2.39	2.86	3.20	4.34	590 nm absorbance normalized to zero hour (substrate use), 0 hr [1]: 1.00; Substrate use, 590 nm absorbance normalized to zero hour, 0 hr [1]: 1.00; Substrate use, 590 nm absorbance normalized to zero hour, 0 hr [2]: 1.00; 590 nm absorbance normalized to zero hour (substrate use), 0 hr [3]: 1.00; 590 nm absorbance normalized to zero hour (substrate use), 8 hr [3]: 4.91; 590 nm absorbance normalized to zero hour (substrate use), 9 hr [3]: 5.77; 590 nm absorbance normalized to zero hour (substrate use), 10 hr [3]: 5.49; 590 nm absorbance normalized to zero hour (substrate use), 11 hr [3]: 6.50
O=C[C@H](O)[C@@H](O)[C@H](O)[C@H](O)COP(=O)(O)O [D-Glucose-6-Phosphate]	1.14	1.18	3.24	1.30	0.74	1.28	1.38	2.69	1.87	1.14	1.48	2.93	2.01	4.92	5.87	2.01	3.00	3.61	4.04	5.47	590 nm absorbance normalized to zero hour (substrate use), 8 hr [3]: 6.35; 590 nm absorbance normalized to zero hour (substrate use), 9 hr [3]: 7.41; 590 nm absorbance normalized to zero hour (substrate use), 10 hr [3]: 7.21; 590 nm absorbance normalized to zero hour (substrate use), 11 hr [3]: 5.87
O=C[C@H](O)[C@@H](O)[C@H](O)[C@H](O)C(=O)O [D-Glucuronic Acid]	1.13	1.37	1.29	1.42	0.86	1.83	1.90	2.04	2.34	1.13	1.57	1.71	1.44	2.79	3.14	1.44	1.90	2.18	2.37	2.96	590 nm absorbance normalized to zero hour (substrate use), 8 hr [3]: 3.24; 590 nm absorbance normalized to zero hour (substrate use), 9 hr [3]: 3.62; 590 nm absorbance normalized to zero hour (substrate use), 10 hr [3]: 3.66; 590 nm absorbance normalized to zero hour (substrate use), 11 hr [3]: 3.99
